Assay [1] deals with F. prausnitzii. Kind of assay: Model organism test of sugar alcohols as energy substrate for F. prausnitzii. The assay is classed as cell-based, Faecalibacterium prausnitzii. The conditions noted are these: FIGS. 4A and 4B. The source says:
Using a model organism, the effect of inositol and sorbitol as energy substrate for F. prausnitzii was confirmed (FIGS. 4A and 4B), but not xylitol. Thus, all sugar alcohols cannot be assumed to have the same effect on F. prausnitzii.

Assay [2] relates to F. prausnitzii. Kind of assay: Growth of F. prausnitzii with added vitamins, glucose as substrate. It is filed as cell-based, Faecalibacterium prausnitzii. Conditions: FIG. 6D.

`OC[C@@H](O)[C@@H](O)CO` [erythritol]: the “effect as energy substrate for F. prausnitzii” value in the assay with F. prausnitzii [1] is reported as “confirmed”.
On to `O[C@H]1[C@H](O)[C@@H](O)[C@H](O)[C@@H](O)[C@H]1O` [inositol], for which the “effect as energy substrate for F. prausnitzii” value in the assay on F. prausnitzii [1] was “confirmed”.
Same read-out and setting: the value for `OC[C@@H](O)[C@@H](O)[C@H](O)[C@@H](O)CO` [sorbitol] was “confirmed”; that for `OC[C@@H](O)[C@H](O)[C@@H](O)CO` [xylitol, reference compound] was “not”.
Regarding Vitamin B12, in the assay on F. prausnitzii [2], the “growth of F. prausnitzii compared with control” value is reported as “more than control”.

The values above are taken from patent US20240226030A1, “COMPOSITIONS AND METHODS USING AT LEAST ONE OF INOSITOL, ERYTHRITOL OR SORBITOL TO ENHANCE GROWTH OF FAECALIBACTERIUM PRAUSNITZII” (SOCIÉTÉ DES PRODUITS NESTLE S.A., priority 2021, published 2024).
